Assay results reported in patent US20230091225A1, “Bifunctional chimeric heterocyclic compounds for targeted degradation of androgen receptors and use thereof” (HINOVA PHARMACEUTICALS INC., priority 2019, published 2023).

target: T1, androgen receptor (AR) (Homo sapiens, UniProt P10275); test: Degradation of androgen receptor (AR) protein in VCaP cells by Western blot; format: cell-based; conditions: percentage of degraded AR at 100 nM, VCaP cells, 16 h
T1 sequence (P10275 1-920): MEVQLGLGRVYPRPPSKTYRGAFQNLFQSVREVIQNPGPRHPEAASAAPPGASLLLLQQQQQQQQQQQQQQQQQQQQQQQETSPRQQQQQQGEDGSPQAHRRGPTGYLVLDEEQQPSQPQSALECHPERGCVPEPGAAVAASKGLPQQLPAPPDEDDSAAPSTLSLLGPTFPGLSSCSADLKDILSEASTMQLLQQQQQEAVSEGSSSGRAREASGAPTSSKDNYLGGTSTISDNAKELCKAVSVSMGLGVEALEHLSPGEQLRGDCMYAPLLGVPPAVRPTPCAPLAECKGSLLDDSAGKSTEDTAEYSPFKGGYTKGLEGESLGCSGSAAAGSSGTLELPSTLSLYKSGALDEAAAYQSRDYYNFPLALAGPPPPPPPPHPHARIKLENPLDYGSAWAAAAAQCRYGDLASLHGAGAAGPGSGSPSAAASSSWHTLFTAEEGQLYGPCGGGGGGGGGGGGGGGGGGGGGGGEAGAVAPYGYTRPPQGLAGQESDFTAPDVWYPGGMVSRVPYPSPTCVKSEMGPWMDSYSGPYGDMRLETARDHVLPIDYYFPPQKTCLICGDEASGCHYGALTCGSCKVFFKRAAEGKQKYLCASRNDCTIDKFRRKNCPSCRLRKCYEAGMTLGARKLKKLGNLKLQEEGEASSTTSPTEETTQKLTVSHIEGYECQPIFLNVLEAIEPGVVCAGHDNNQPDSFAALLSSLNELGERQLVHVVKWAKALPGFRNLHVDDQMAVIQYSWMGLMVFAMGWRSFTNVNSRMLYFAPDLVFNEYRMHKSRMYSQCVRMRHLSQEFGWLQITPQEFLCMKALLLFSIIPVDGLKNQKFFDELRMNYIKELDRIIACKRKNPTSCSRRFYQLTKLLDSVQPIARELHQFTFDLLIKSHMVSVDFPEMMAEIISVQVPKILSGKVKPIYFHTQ
Procedure: Determination of the Degradation Activity of the Compound on Androgen Receptor (AR) Protein by Western Blot
1) VCaP cells were subcultured in cell culture media, and then the cells in good growth condition were seeded in a 12-well plate at 1 ml/well (5×10^5 cells/well), and cultured overnight in a 37° C., 5% CO2 cell incubator. 2) The test compound was prepared into a 10 mM stock solution with dimethyl sulfoxide (DMSO). Prior to use, the solution was diluted 3 times with DMSO. […] of the diluted compound solution was added to the cell culture well (ensuring that the DMSO concentration in the culture system was 0.1%), and two wells were set for each concentration. The plate was gently shaken to mix. In addition, the experiment included negative control wells (containing equal amount of DMSO) and positive control wells. 3) After culturing 16 h. the cells were lysed with RIPA cell lysate, and the protein was extracted. The protein concentration was measured with BCA kit. 5-fold concentrated protein loading buffer was added, and after heated at 100° C. for 5 min. the sample was stored at −20° C. 4) for each well, 30 μg of protein was loaded on polyacrylamide gel for electrophoresis. 5) The protein was transferred from polyacrylamide gel to PVDF membrane, and then 5% skim milk was added to close for 1 h at room temperature. The first antibody (Androgen Receptor (D6F11) XP Rabbit mAb and Anti-β-Actin Rabbit mAb) was added and incubated overnight at 4° C. The membrane was washed with TBST solution three times. 10 min for each time. The secondary antibody (horseradish peroxidase labeled goat […]) was added and incubated at room temperature for 2 h, and then the membrane was washed with TBST solution three times. 10 min for each time.
Finally, ECL chemiluminescence solution was added, and then photos were taken with automatic chemiluminescence instrument to collect pictures for analysis.

Compared with `N#Cc1ccc(O[C@H]2CC[C@H](NC(=O)c3cnc(N4C[C@@H]5[C@@H](CN6CCN(c7cc8c(cc7F)C(=O)N(C7CCC(=O)NC7=O)C8=O)CC6)[C@@H]5C4)cn3)CC2)cc1Cl` (stereo partly drawn) [Compound 176, N-((1r,4R)-4-(3-chloro-4-cyanophenoxy)cyclohexyl)-5-((1R,5S,6S)-6-((4-(2-(2,6-dioxopiperidin-3-yl)-6-fluoro-1,3-dioxoisoindolin-5-yl)piperazin-1-yl)methyl)-3-azabicyclo[3.1.0]hexan-3-yl)pyrazine-2-carboxamide], `N#Cc1ccc(O[C@H]2CC[C@H](NC(=O)c3cnc(N4CC5CN(CC6CCN(c7cc8c(cc7F)C(=O)N(C7CCC(=O)NC7=O)C8=O)CC6)CC5C4)cn3)CC2)cc1Cl` (stereo partly drawn) [Compound 157] is higher in inhibition at 0.1 µM: 50 to 79% for the first, greater than 80% for the second.

First: N#Cc1ccc(O[C@H]2CC[C@H](NC(=O)c3cnc(N4CC(CN5CC6CN(c7cc8c(cc7F)C(=O)N(C7CCC(=O)NC7=O)C8=O)CC6C5)C4)nc3)CC2)cc1Cl (stereo partly drawn) [Compound 140]
Second: N#Cc1ccc(O[C@H]2CC[C@H](NC(=O)c3cnc(N4CCC(CN5CC6CN(c7cc8c(cc7F)C(=O)N(C7CCC(=O)NC7=O)C8=O)CC6C5)CC4)cn3)CC2)cc1Cl (stereo partly drawn) [Compound 255, N-((1r,4r)-4-(3-chloro-4-cyanophenoxy)cyclohexyl)-5-(4-((5-(2-(2,6-dioxopiperidin-3-yl)-6-fluoro-1,3-dioxoisoindolin-5-yl)Hexahydropyrrolo[3,4-c]pyrrol-2(1H)-yl)methyl)piperidin-1-yl)pyrazine-2-carboxamide]
The inhibition at 0.1 µM of the first is lower: 25 to 49% for the first, 50 to 79% for the second.

Compared with `N#Cc1ccc(O[C@H]2CC[C@H](NC(=O)c3cnc(N4CCC5(CCN(C6CCN(c7cc8c(cc7F)C(=O)N(C7CCC(=O)NC7=O)C8=O)CC6)C5)C4)cn3)CC2)cc1Cl` (stereo partly drawn) [Compound 167, N-((1r,4r)-4-(3-chloro-4-cyanophenoxy)cyclohexyl)-5-(7-(1-(2-(2,6-dioxopiperidin-3-yl)-6-fluoro-1,3-dioxoisoindolin-5-yl)piperidine-4-yl)-2,7-diazaspiro[4.4]nonan-2-yl)pyrazine-2-carboxamide], `N#Cc1ccc(O[C@H]2CC[C@H](NC(=O)c3cnc(N4CCC5(CC4)CN(C4CCN(c6cc7c(cc6F)C(=O)N(C6CCC(=O)NC6=O)C7=O)CC4)C5)cn3)CC2)cc1Cl` (stereo partly drawn) [Compound 289] is higher in inhibition at 0.1 µM: 50 to 79% for the first, greater than 80% for the second.

`N#Cc1ccc(OC2CC3(CC(NC(=O)c4ccc(N5CCC(CN6CCN(c7ccc8c(c7)C(=O)N(C7CCC(=O)NC7=O)C8=O)CC6)CC5)nn4)C3)C2)cc1Cl` (stereo not drawn) [Compound 109] and `N#Cc1ccc(O[C@H]2C[C@H]3C[C@@H](NC(=O)c4cnc(N5CCC(CN6CCN(c7ccc8c(c7)C(=O)N(C7CCC(=O)NC7=O)C8=O)CC6)CC5)cn4)C[C@H]3C2)cc1Cl` (stereo partly drawn) [Compound 303, N-((2s,3aR,5R,6aS)-5-(3-chloro-4-cyanophenoxy)octahydropenten-2-yl)-5-(4-((4-(2-(2,6-dioxopiperidin-3-yl)-1,3-dioxoisoindolin-5-yl)piperazin-1-yl)methyl)piperidin-1-yl)piperazine-2-carboxamide] cannot be ordered by inhibition at 0.1 µM: less than 25% for the first, less than 25% for the second.

`N#Cc1ccc(O[C@H]2CC[C@H](N3Cc4nc(NC5CCN(CC6CCN(c7ccc8c(c7)C(=O)N(C7CCC(=O)NC7=O)C8=O)CC6)CC5)ccc4C3=O)CC2)cc1Cl` (stereo partly drawn) [Compound 172] and `N#Cc1ccc(O[C@H]2CC[C@H](N3Cc4nc(C#CC5CCN(C6CCN(c7ccc8c(c7)C(=O)N(C7CCC(=O)NC7=O)C8=O)CC6)CC5)ccc4C3=O)CC2)cc1Cl` (stereo partly drawn) [Compound 323] cannot be ordered by inhibition at 0.1 µM: less than 25% for the first, less than 25% for the second.

First: CC1(C)[C@H](Oc2ccc(C#N)c(Cl)c2)C(C)(C)[C@H]1N1Cc2nc(C#CC3CCN(CC4CN(c5cc6c(cc5F)C(=O)N(C5CCC(=O)NC5=O)C6=O)C4)CC3)ccc2C1=O (stereo partly drawn) [Compound 334]
Second: CC1(C)[C@H](Oc2ccc(C#N)c(Cl)c2)C(C)(C)[C@H]1N1Cc2nc(C#CC3CN(C4CCN(c5cc6c(cc5F)C(=O)N(C5CCC(=O)NC5=O)C6=O)CC4)C3)ccc2C1=O (stereo partly drawn) [Compound 320, 2-Chloro-4-((1r,3r)-3-(2-((1-(1-(2-(2,6-dioxopiperidin-3-yl)-6-fluoro-1,3-dioxoisoindolin-5-yl)piperidine-4-yl)azelaic acid-3-yl)ethynyl)-5-oxo-5H-pyrrolino[3,4-b]pyridin-6(7H)-yl)-2,2,4,4-tetramethylcyclobutoxy)benzonitrile]
The inhibition at 0.1 µM of the first is higher: greater than 80% for the first, 50 to 79% for the second.

`N#Cc1ccc(O[C@H]2CC[C@H](NC(=O)c3ccc(N4CCC(CN5CCC(Nc6ccc7c(c6)C(=O)N(C6CCC(=O)NC6=O)C7=O)CC5)CC4)nn3)CC2)cc1Cl` (stereo partly drawn) [Compound 143] and `N#Cc1ccc(O[C@H]2CC[C@H](NC(=O)c3cnc(N4CCC(CN5CCC(Nc6cc7c(cc6F)C(=O)N(C6CCC(=O)NC6=O)C7=O)CC5)CC4)cn3)CC2)cc1Cl` (stereo partly drawn) [Compound 145] cannot be ordered by inhibition at 0.1 µM: greater than 80% for the first, greater than 80% for the second.

`N#Cc1ccc(O[C@H]2CC[C@H](NC(=O)c3cnc(N4CC5CN(C6CCN(c7ccc8c(c7)C(=O)N(C7CCC(=O)NC7=O)C8=O)CC6)CC5C4)cn3)CC2)cc1Cl` (stereo partly drawn) [Compound 69, N-((1r,4r)-4-(3-chloro-4-cyanophenoxy)cyclohexyl)-5-(5-(1-(2-(2,6-dioxopiperidin-3-yl)-1,3-dioxoisoindolin-5-yl)piperidine-4-yl)hexahydropyrrolo[3,4-c]pyrrol-2(1H)-yl)pyrazine-2-carboxamide] and `N#Cc1ccc(O[C@H]2CC[C@H](NC(=O)c3cnc(N4CCN([C@@H]5C[C@@H]6CN(c7ccc8c(c7)C(=O)N(C7CCC(=O)NC7=O)C8=O)C[C@@H]6C5)CC4)cn3)CC2)cc1Cl` (stereo partly drawn) [Compound 296, N-((1r,4r)-4-(3-chloro-4-cyanophenoxy)cyclohexyl)-5-(4-((3aR,5R,6aS)-2-(2-(2,6-dioxopiperidin-3-yl)-1,3-dioxoisoindol-5-yl)octahydrocyclopenta [c]pyrrol-5-yl)piperazin-1-yl)pyrazine-2-carboxamide] cannot be ordered by inhibition at 0.1 µM: less than 25% for the first, less than 25% for the second.

First: N#Cc1ccc(O[C@H]2CC[C@H](NC(=O)c3cnc(N4CCN(C(=O)O[C@H]5C[C@@H]6CN(c7ccc8c(c7)C(=O)N(C7CCC(=O)NC7=O)C8=O)C[C@@H]6C5)CC4)cn3)CC2)cc1Cl (stereo partly drawn) [Compound 301]
Second: N#Cc1ccc(OC2C[C@@H]3CN(C(=O)c4cnc(N5CCC(CN6CCN(c7ccc8c(c7)C(=O)N(C7CCC(=O)NC7=O)C8=O)CC6)CC5)cn4)C[C@@H]3C2)cc1Cl (stereo partly drawn) [Compound 174, 2-chloro-4-(((3aR,5r,6aS)-2-(5-(4-((4-(2-(2,6-dioxopiperidin-3-yl)-1,3-dioxoisoindolin-5-yl)piperazin-1-yl)methyl)piperidin-1-yl)pyrazine-2-carbonyl)octahydrocyclopenta[c]pyrrol-5-yl)oxy)benzonitrile]
The inhibition at 0.1 µM of the first is higher: 50 to 79% for the first, less than 25% for the second.

First: N#Cc1ccc(O[C@H]2CC[C@H](NC(=O)c3ccc(N4CC5(CCN(CC6CCN(c7cc8c(cc7F)C(=O)N(C7CCC(=O)NC7=O)C8=O)CC6)CC5)C4)nn3)CC2)cc1Cl (stereo partly drawn) [Compound 232]
Second: CC1(C)[C@H](Oc2ccc(C#N)c(Cl)c2)C(C)(C)[C@H]1N1Cc2nc(C#CC3CCN(C4CCN(c5cc6c(cc5F)C(=O)N(C5CCC(=O)NC5=O)C6=O)CC4)CC3)ccc2C1=O (stereo partly drawn) [Compound 316]
The inhibition at 0.1 µM of the first is higher: greater than 80% for the first, 25 to 49% for the second.

In the case of `N#Cc1ccc(OC2CCC(NC(=O)c3cnc(N4C[C@@H]5CN(C6CCN(c7cc8c(cc7F)C(=O)N(C7CCC(=O)NC7=O)C8=O)CC6)C[C@@H]5C4)nc3)CC2)cc1Cl` (stereo partly drawn) [Compound 220, N-((1s,4S)-4-(3-chloro-4-cyanophenoxy)cyclohexyl)-2-((3aR,6aS)-5-(1-(2-(2,6-dioxopiperidin-3-yl)-6-fluoro-1,3-dioxoisoindolin-5-yl)piperidine-4-yl)hexahydropyrrolo[3,4-c]pyrrol-2(1H)-yl)pyrimidine-5-carboxamide], the “% degradation” value is reported as “D (<25%)”.
